Experimental data published in patent publication US10624947B2, “Bactericidal peptides and uses thereof” (INDIANA UNIVERSITY RESEARCH AND TECHNOLOGY CORPORATION, priority 2016, dated 2020).
In brackets after ≈: the same amount, converted by molar mass. Read-outs that look alike come from different tables or passages of the source. Ends that are not written are not given here.

Experiments:
[1] = tested on: human red blood cells (hRBCs); test: Hemolytic activity; type: cell-based
Protocol: The amount of hemoglobin released was measured by the absorbance at 435 nm after a 60-minute incubation with the antimicrobial peptide. The percentage of hRBC lysis was normalized to the amount hemoglobin released by the suspension of the hRBCs in deionized water. The background amount of hRBC lysis was determined by adding phosphate buffered saline (PBS) at the same volume as 8 μM of the peptide to the hRBC for 1 h.
The hemolytic activities of peptides were determined using human red blood cells (hRBCs) (Innovative Research, Inc., cat. # IPLA-WB3-18103). The hRBCs were washed three times with PBS and then resuspended in PBS. The hRBCs solution was mixed with serial dilutions of the peptides in PBS buffer. The reaction mixtures were incubated for 45 min at 37° C. After centrifugation at 94×g for 10 min, the intact hRBCs were pelleted and the hemoglobin released from hRBCs was monitored by measuring the absorbance of the supernatant at 415 nm. The background level of absorbance was measured in sampled incubated with only PBS buffer. 100% hemolysis was determined in sampled incubated with water. The percentage of hemolysis was calculated according to the following equation. Percentage of hemolysis=[(Asample−Ablank)/Awater]*100%
Mammalian cells are thought to be less susceptible to cathelicidin peptides in part because the composition of their membrane will be less likely to interact with the peptides. To address this directly, human red blood cells (hRBCs) were tested for lysis after a 45-minute incubation with the peptides. The total lysis of hRBCs was determined by adding water to the cells. The amount of lysis during handling was determined by the addition of phosphate buffered saline at the same volume as that of the peptides.

Cultured human cells = test: MTT cytotoxicity assay; type: cell-based
Pseudomonas aeruginosa = type: cell-based
Protocol: (§1) Antimicrobial activity was determined using the broth microdilution method based on the general recommendation of the Clinical and Laboratory Standards Institute. Bacteria were grown in Mueller-Hinton broth at 37° C. until OD625 reached 0.06, and then bacteria were further diluted into 1:20 for later use. […] 10 microliter (μL) of diluted bacteria was mixed with 90 μL of peptides at varying concentrations followed by incubation at 37° C. for 16-18 hours. The MIC is the lowest peptide concentration at which visible growth was inhibited. The MIC value was determined at least twice in independent experiments and typically in 3-4 assays.

Klebsiella pneumoniae [2] = tested on: Klebsiella pneumoniae
Protocol: as §1

Klebsiella pneumoniae [3] = test: microbe, parasite or virus in culture
Protocol: as §1

[4] = Table 8, clinical isolate 88 (NDM1+)
[5] = Table 8, clinical isolate 262 (NDM1+)
[6] = Table 11, clinical isolate 88 (NDM1+)
[7] = Table 11, clinical isolate 262 (NDM1+)
[8] = Table 11, clinical isolate 110113

Protocol for Enterobacter cloacae: as §1
Protocol for Escherichia coli: as §1
Protocol for Serratia marcescens: as §1

With `CC[C@H](C)[C@H](NC(=O)[C@H](CCCCN)NC(=O)[C@H](CCC(=O)O)NC(=O)[C@H](CCCCN)NC(=O)[C@H](CO)NC(=O)[C@H](CCCCN)NC(=O)[C@H](CCCNC(=N)N)NC(=O)[C@H](Cc1ccccc1)NC(=O)[C@H](Cc1ccccc1)NC(=O)[C@H](CC(=O)O)NC(=O)CNC(=O)[C@H](CC(C)C)NC(=O)[C@@H](N)CC(C)C)C(=O)NCC(=O)N[C@@H](CCCCN)C(=O)N[C@@H](CCC(=O)O)C(=O)N[C@@H](Cc1ccccc1)C(=O)N[C@@H](CCCCN)C(=O)N[C@@H](CCCNC(=N)N)C(=O)N[C@H](C(=O)N[C@H](C(=O)N[C@@H](CCC(N)=O)C(=O)N[C@@H](CCCNC(=N)N)C(=O)N[C@H](C(=O)N[C@@H](CCCCN)C(=O)N[C@@H](CC(=O)O)C(=O)N[C@@H](Cc1ccccc1)C(=O)N[C@@H](CC(C)C)C(=O)N[C@@H](CCCNC(=N)N)C(=O)N[C@@H](CC(N)=O)C(=O)N[C@@H](CC(C)C)C(=O)N[C@H](C(=O)N1CCC[C@H]1C(=O)N[C@@H](CCCNC(=N)N)C(=O)N[C@H](C(=O)N[C@@H](CCC(=O)O)C(=O)N[C@@H](CO)C(=O)O)[C@@H](C)O)C(C)C)[C@@H](C)CC)C(C)C)[C@@H](C)CC` [LL-37, reference compound] the Minimal inhibitory concentration (Enterobacter cloacae; E. cloacae 4092) was >32 µg/mL, the Minimal inhibitory concentration (Enterobacter cloacae; Table 10, Enterobacter cloacae OC4080) was 32 µM and the Minimal inhibitory concentration (Enterobacter cloacae; Table 10, Enterobacter cloacae OC4092) was >32 µM. For the same molecule, the “Hemoglobin release from hRBCs” value ([1]; 2 micromolar, 45-minute incubation (FIG. 17)) was “a low abundance of hemoglobin outside of the cells was detected”, the hRBC lysis ([1]; 2 to 8 μM (FIG. 15)) was “lysed hRBC when present at 4 or 8 μM” and the “hRBC lysis with increasing concentration” value ([1]; LL-37 beyond 10 micromolar, B22a up to 60 micromolar (FIG. 18)) was “significantly higher hRBC lysis”. For the same molecule, the “Cytotoxicity, MTT assay” value (Cultured human cells; cultured human cells, compared to controls) was “no increased cytotoxicity compared to the controls”, the Minimal inhibitory concentration (Pseudomonas aeruginosa; P. aeruginosa ATCC 27853) was >32 µg/mL and the Minimal inhibitory concentration (Pseudomonas aeruginosa; Table 10, Pseudomonas aeruginosa ATCC 27853) was >32 µM. For the same molecule, the Minimal inhibitory concentration (Pseudomonas aeruginosa; Table 10, Pseudomonas aeruginosa OC4083) was >32 µM, the Minimal inhibitory concentration (Pseudomonas aeruginosa; Table 10, Pseudomonas aeruginosa PAO1) was 32 µM and the Minimal inhibitory concentration (Pseudomonas aeruginosa; Table 10, Pseudomonas aeruginosa PAO1 oprD) was 32 µM. For the same molecule, the Minimal inhibitory concentration (Escherichia coli; E. coli 4075) was >32 µg/mL, the Minimal inhibitory concentration (Escherichia coli; E. coli J53 AzideR) was >32 µg/mL and the Minimal inhibitory concentration (Escherichia coli; E. coli MC4100) was >32 µg/mL. It also gave a Minimal inhibitory concentration (Escherichia coli; Table 10, Escherichia coli ATCC 25922) of 32 µM, a Minimal inhibitory concentration (Escherichia coli; Table 10, Escherichia coli ATCC 35218) of 32 µM and a Minimal inhibitory concentration (Escherichia coli; Table 10, Escherichia coli IU342) of 32 µM. The Minimal inhibitory concentration (Escherichia coli; Table 10, Escherichia coli J53 AzideR) was >32 µM, the Minimal inhibitory concentration (Escherichia coli; Table 10, Escherichia coli MC4100a) was >32 µM and the Minimal inhibitory concentration (Escherichia coli; Table 10, Escherichia coli OC4075) was >32 µM. The Minimal inhibitory concentration (Escherichia coli; Table 10, Escherichia coli UT189) was >32 µM, the Minimal inhibitory concentration (Klebsiella pneumoniae [2]; K. pneumoniae 4110) was >32 µg/mL and the Minimal inhibitory concentration (Klebsiella pneumoniae [2]; K. pneumoniae ATCC 700603) was >32 µg/mL. For the same molecule, the Minimal inhibitory concentration (Klebsiella pneumoniae [2]; K. pneumoniae C2) was >32 µg/mL, the Minimal inhibitory concentration (Klebsiella pneumoniae [2]; K. pneumoniae OC8893) was >32 µg/mL and the Minimal inhibitory concentration (Klebsiella pneumoniae [2]; Table 10, Klebsiella pneumonia ATCC 700603) was >32 µM. The Minimal inhibitory concentration (Klebsiella pneumoniae [2]; Table 10, Klebsiella pneumonia C2) was >32 µM, the Minimal inhibitory concentration (Klebsiella pneumoniae [2]; Table 10, Klebsiella pneumonia OC4110) was >32 µM and the Minimal inhibitory concentration (Klebsiella pneumoniae [2]; Table 10, Klebsiella pneumonia OC8893) was >32 µM. The Minimal inhibitory concentration (Serratia marcescens; S. marcescens 4101) was >32 µg/mL, the Minimal inhibitory concentration (Serratia marcescens; S. marcescens 4104) was >32 µg/mL and the Minimal inhibitory concentration (Serratia marcescens; S. marcescens 7553) was >32 µg/mL. For the same molecule, the Minimal inhibitory concentration (Serratia marcescens; Table 10, Serratia marcescens 4075A) was >32 µM, the Minimal inhibitory concentration (Serratia marcescens; Table 10, Serratia marcescens 4101) was >32 µM and the Minimal inhibitory concentration (Serratia marcescens; Table 10, Serratia marcescens 4104) was >32 µM.
`C[C@@H](O)[C@H]1C(=O)N2C(C(=O)O)=C(S[C@@H]3CN[C@H](C(=O)N(C)C)C3)[C@H](C)[C@H]12` [Meropenem] was tested, and the MIC (Klebsiella pneumoniae [3]; [4]) was > 16 µg/mL, the MIC (Klebsiella pneumoniae [3]; Table 8, clinical isolate 92) was > 16 µg/mL and the MIC (Klebsiella pneumoniae [3]; Table 8, clinical isolate 109) was > 16 µg/mL. The MIC (Klebsiella pneumoniae [3]; Table 8, clinical isolate 113) was > 16 µg/mL, the MIC (Klebsiella pneumoniae [3]; Table 8, clinical isolate 116) was > 16 µg/mL and the MIC (Klebsiella pneumoniae [3]; Table 8, clinical isolate 118) was > 16 µg/mL. The MIC (Klebsiella pneumoniae [3]; Table 8, clinical isolate 136) was > 16 µg/mL, the MIC (Klebsiella pneumoniae [3]; Table 8, clinical isolate 170) was > 32 µg/mL and the MIC (Klebsiella pneumoniae [3]; Table 8, clinical isolate 256) was 4 µg/mL (≈ 10.4 µM). The MIC (Klebsiella pneumoniae [3]; [5]) was > 6 µg/mL, the MIC (Klebsiella pneumoniae [3]; Table 8, clinical isolate 265) was > 64 µg/mL and the MIC (Klebsiella pneumoniae [3]; Table 8, clinical isolate 280) was > 64 µg/mL. The MIC (Klebsiella pneumoniae [3]; Table 8, clinical isolate 281) was > 64 µg/mL, the MIC (Klebsiella pneumoniae [3]; Table 8, clinical isolate 284) was > 64 µg/mL and the MIC (Klebsiella pneumoniae [3]; Table 8, clinical isolate 286) was > 64 µg/mL. The MIC (Klebsiella pneumoniae [3]; Table 8, clinical isolate 328) was > 16 µg/mL, the MIC (Klebsiella pneumoniae [3]; Table 8, clinical isolate 330) was > 16 µg/mL and the MIC (Klebsiella pneumoniae [3]; Table 8, clinical isolate 361) was > 16 µg/mL. The MIC (Klebsiella pneumoniae [3]; Table 8, clinical isolate 365) was > 16 µg/mL, the MIC (Klebsiella pneumoniae [3]; Table 8, clinical isolate 399) was > 16 µg/mL and the MIC (Klebsiella pneumoniae [3]; [6]) was > 16 µg/mL. The MIC (Klebsiella pneumoniae [3]; Table 11, clinical isolate 92) was > 16 µg/mL, the MIC (Klebsiella pneumoniae [3]; Table 11, clinical isolate 116) was > 16 µg/mL and the MIC (Klebsiella pneumoniae [3]; Table 11, clinical isolate 118) was > 16 µg/mL. For the same molecule, the MIC (Klebsiella pneumoniae [3]; Table 11, clinical isolate 136) was > 16 µg/mL, the MIC (Klebsiella pneumoniae [3]; Table 11, clinical isolate 170) was > 32 µg/mL and the MIC (Klebsiella pneumoniae [3]; Table 11, clinical isolate 256) was 4 µg/mL (≈ 10.4 µM). The MIC (Klebsiella pneumoniae [3]; [7]) was ≥ 64 µg/mL, the MIC (Klebsiella pneumoniae [3]; Table 11, clinical isolate 265) was ≥ 64 µg/mL and the MIC (Klebsiella pneumoniae [3]; Table 11, clinical isolate 280) was ≥ 64 µg/mL. For the same molecule, the MIC (Klebsiella pneumoniae [3]; Table 11, clinical isolate 281) was > 64 µg/mL, the MIC (Klebsiella pneumoniae [3]; Table 11, clinical isolate 284) was ≥ 64 µg/mL and the MIC (Klebsiella pneumoniae [3]; Table 11, clinical isolate 286) was ≥ 64 µg/mL. The MIC (Klebsiella pneumoniae [3]; Table 11, clinical isolate 328) was ≥ 16 µg/mL, the MIC (Klebsiella pneumoniae [3]; Table 11, clinical isolate 330) was ≥ 16 µg/mL and the MIC (Klebsiella pneumoniae [3]; Table 11, clinical isolate 361) was ≥ 16 µg/mL. For the same molecule, the MIC (Klebsiella pneumoniae [3]; Table 11, clinical isolate 365) was ≥ 16 µg/mL, the MIC (Klebsiella pneumoniae [3]; Table 11, clinical isolate 399) was ≥ 16 µg/mL and the MIC (Klebsiella pneumoniae [3]; [8]) was > 16 µg/mL.
With “GRFKRFRKKFKKLFKKLSPVIPLLHLG [BMAP-27, reference compound]” the RBC lysis [1] was “decreased RBC lysis compared to the control H2O”, the “Cytotoxicity, MTT assay” value (Cultured human cells) was “no increased cytotoxicity compared to the controls” and the Minimal inhibitory concentration (Escherichia coli) was 8 µg/mL.
In the case of `C[C@@H](O)[C@H]1C(=O)N2C(C(=O)O)=C(SCCN=CN)C[C@H]12` [Imipenem], the MIC (Klebsiella pneumoniae [3]; [4]) was 16 µg/mL (≈ 53.4 µM), the MIC (Klebsiella pneumoniae [3]; Table 8, clinical isolate 92) was > 64 µg/mL and the MIC (Klebsiella pneumoniae [3]; Table 8, clinical isolate 109) was 16 µg/mL (≈ 53.4 µM). The MIC (Klebsiella pneumoniae [3]; Table 8, clinical isolate 113) was 16 µg/mL (≈ 53.4 µM), the MIC (Klebsiella pneumoniae [3]; Table 8, clinical isolate 116) was 8 µg/mL (≈ 26.7 µM) and the MIC (Klebsiella pneumoniae [3]; Table 8, clinical isolate 118) was 32 µg/mL (≈ 107 µM). For the same molecule, the MIC (Klebsiella pneumoniae [3]; Table 8, clinical isolate 136) was 8 µg/mL (≈ 26.7 µM), the MIC (Klebsiella pneumoniae [3]; Table 8, clinical isolate 256) was ≥ 16 µg/mL and the MIC (Klebsiella pneumoniae [3]; [5]) was > 16 µg/mL. For the same molecule, the MIC (Klebsiella pneumoniae [3]; Table 8, clinical isolate 265) was 48 µg/mL (≈ 160 µM), the MIC (Klebsiella pneumoniae [3]; Table 8, clinical isolate 280) was ≥ 16 µg/mL and the MIC (Klebsiella pneumoniae [3]; Table 8, clinical isolate 281) was 4 µg/mL (≈ 13.4 µM). For the same molecule, the MIC (Klebsiella pneumoniae [3]; Table 8, clinical isolate 284) was 8 µg/mL (≈ 26.7 µM), the MIC (Klebsiella pneumoniae [3]; Table 8, clinical isolate 286) was ≥ 16 µg/mL and the MIC (Klebsiella pneumoniae [3]; Table 8, clinical isolate 330) was 4 µg/mL (≈ 13.4 µM). The MIC (Klebsiella pneumoniae [3]; Table 8, clinical isolate 361) was > 16 µg/mL, the MIC (Klebsiella pneumoniae [3]; [6]) was 16 µg/mL (≈ 53.4 µM) and the MIC (Klebsiella pneumoniae [3]; Table 11, clinical isolate 92) was > 64 µg/mL. The MIC (Klebsiella pneumoniae [3]; Table 11, clinical isolate 116) was 8 µg/mL (≈ 26.7 µM), the MIC (Klebsiella pneumoniae [3]; Table 11, clinical isolate 118) was 32 µg/mL (≈ 107 µM) and the MIC (Klebsiella pneumoniae [3]; Table 11, clinical isolate 136) was 8 µg/mL (≈ 26.7 µM). The MIC (Klebsiella pneumoniae [3]; Table 11, clinical isolate 256) was ≥ 16 µg/mL, the MIC (Klebsiella pneumoniae [3]; [7]) was > 16 µg/mL and the MIC (Klebsiella pneumoniae [3]; Table 11, clinical isolate 265) was 48 µg/mL (≈ 160 µM). The MIC (Klebsiella pneumoniae [3]; Table 11, clinical isolate 280) was ≥ 16 µg/mL, the MIC (Klebsiella pneumoniae [3]; Table 11, clinical isolate 281) was 4 µg/mL (≈ 13.4 µM) and the MIC (Klebsiella pneumoniae [3]; Table 11, clinical isolate 284) was 8 µg/mL (≈ 26.7 µM). The MIC (Klebsiella pneumoniae [3]; Table 11, clinical isolate 286) was ≥ 16 µg/mL, the MIC (Klebsiella pneumoniae [3]; Table 11, clinical isolate 330) was 4 µg/mL (≈ 13.4 µM) and the MIC (Klebsiella pneumoniae [3]; Table 11, clinical isolate 361) was > 16 µg/mL. The MIC (Klebsiella pneumoniae [3]; Table 11, clinical isolate 10916) was > 16 µg/mL and the MIC (Klebsiella pneumoniae [3]; [8]) was 16 µg/mL (≈ 53.4 µM).
